Consider seven molecules from patent US20110224242A1, “STYRLYQUINOLINES, THEIR PROCESS OF PREPARATION AND THEIR THERAPEUTIC USES” (BIOALLIANCE PHARMA, priority 2008, published 2011).

In data set [1] the test system is wild type HIV-1 virus (NL 4.3 strains). Description: Antiviral activity assay CEM cells (p24 ELISA). The data set is classed as cell-based. To be noted: Human immunodeficiency virus 1, CCRF-CEM, read-out: CEM. How it is done:
The activity is determined by infecting CEM cells with a wild type HIV-1 virus (NL 4.3 strains at 3 ng) on cells in presence or absence of drugs. A serial dilution of drugs is done to evaluate the EC50. […] After 48 hours incubation, the quantification is done by the evaluation of the viral protein p24 with a commercial Elisa Kit. P24 is a protein essential to the replication virus cycle. The quantification of this enzyme is proportional to the amount of virus produced by the infected cells.
In general terms: ELISA stands for enzyme-linked immunosorbent assay.

The nature of the next data set: in vitro. The format is cell-based. To be noted: human. The method, then: The cytotoxicity of compounds was evaluated using un-infected and infected Hel_a-P4 cell and CEM leukemia cells. CEM cell were obtained from the American Type Tissue Collection (Rockville, Md.).
A serial dilution of drugs is done to evaluate the cytotoxicity concentration and is identified by CC50 (concentration of drug which induces 50% of cytotoxicity)
The HeLa-P4 was cultured in the presence or absence of compounds for 2 days. After this time period, cells were cultivated with MTT for 3 hours, further the medium is removed. And the lysis buffer is incubated for 1 hour, followed by plate reading at 540 nm in a microplate reader.

Data set [2] relates to wild type HIV-1 virus (NL 4.3 strains). Description: Antiviral activity assay on Hela P4 cells (beta-galactosidase, CPRG). The format is cell-based. To be noted: read-out: P4 IC50. How it is done: The antiviral activity is determined by infecting HelaP4 cells with a wild type HIV-1 virus (NL 4.3 strains at 3 ng) on cells in presence or absence of drugs. A serial dilution of drugs is done to evaluate the EC50. The effective concentration is the concentration of product at which virus replication is inhibited by 50 percent. After 48 hours incubation, the quantification is done by the evaluation of β-Galactosidase produced by the infected Hela P4 cells. The viral activity is evaluated by colorimethc assay, CPRG, followed by plate reading at 570 nm with a reference of 690 nm. The CPRG test is a colorimetric assay which allows to quantity the β-galactosidase produced by HIV-1 infected indicator cells (the β-Gal gene being under the control of the HIV-1 LTR).

A further data set has as its target T1, HBX2 HIV integrase (Human immunodeficiency virus type 1 group M subtype B, UniProt P04585).
T1 construct: contains the cDNA encoding the HBX2 HIV integrase; His tag (N, cleaved yes); made in house; host or cells: Escherichia coli BL21 (DE3)
Description: 3' LTR processing assay. The data set is classed as biochemical. How it is done:
The pET-15b-IN plasmid contains the cDNA encoding the HBX2 HIV integrase. His-tagged integrase protein was overexpressed in Escherichia coli BL21 (DE3) and purified under native conditions. Briefly, at an OD of 0.8, fusion protein expression was induced in bacterial cultures by the addition of IPTG (1 mM). Cultures were incubated for 3 h at 37° C., of ter which cells were centrifuged. The cell pellet was resuspended in ice-cold buffer A [20 mM Ths-HCl (pH 8), 1 M NaCl, 4 mM β-mercaptoethanol, and 5 mM imidazole], treated with lysozyme for 1 h on ice, and sonicated. After centrifugation (30 min at 10 000 rpm), the supernatant was filtered (0.45 μm) and incubated for at least 2 h with Ni-NTA agarose beads (Pharmacia). The beads were washed twice with 10 volumes of buffer A, 10 volumes of buffer A with 50 mM imidazole, and 10 volumes of buffer A with 100 mM imidazole. His-tagged integrase was then eluted with buffer A supplemented with 50 μM ZnSO4 and 1 M imidazole. The integrase concentration was adjusted to 0.1 mg/mL in buffer A. The fusion protein was cleaved using thrombin and dialyzed overnight against 20 mM Ths-HCl (pH 8), 1 M NaCl, and 4 mM (3-mercaptoethanol. After removal of biotinylated thrombin by incubation with streptavidin-agarose magnetic beads (Novagen, Madison, Wis.), a second dialysis was performed for 2 h against 20 mM Ths-HCl (pH 8), 1 M NaCl, 4 mM mercaptoethanol, and 20% (v/v) ethylene glycol. Fractions were aliquoted and rapidly frozen at −80° C.
Oligonucleotides U5B (5′-[…]-3′), U5B-2 (5′-GTGTGGAAAATCTCTAGCA-3′), U5A (5′-[…]-3′) were purchased from Eurogentec (Liege, Belgium) and further purified on an 18% denaturing acrylamide/urea gel. For processing, strand transfer, 100 pmol of U5B, U5B-2, respectively, were radiolabeled using T4 polynucleotide kinase and 50 μCi of [γ-32P]ATP (3000 Ci/mmol). The T4 kinase was heat inactivated, and unincorporated nucleotides were removed using a Sephadex G-10 column (GE Healthcare). NaCl was added to a final concentration of 0.1 M, and complementary unlabeled strand USA was added to either U5B or U5B-2. The mixture was heated to 90° C. for 3 min, and the DNA was annealed by slow cooling.
Processing reaction was performed using U5A-U5B, in buffer containing 20 mM Tris (pH 7.2), 50 mM NaCl, 10 mM DTT, and 10 mM MgCl2. […] The reactions were stopped by phenol/chloroform extraction, and DNA products were precipitated with ethanol. The products were separated in TE containing 7 M urea and electrophoresed on an 18% denaturing acrylamide/urea gel. Gels were analyzed using a STORM Molecular Dynamics phosphorimager and quantified with Image Quant™ 4.1 software.

Data set [3] in a line: Stability in Hepes buffer 0.5 M pH 7.5 (UV spectrophotometry). The data set is classed as physicochemical. To be noted: HEPES 0.5 M pH 7.5, 37°, 50 μM (SQE94 and 79 at 25 μM). How it is done: 2.1. Hepes Buffer 0.5M, pH 7.5. 16 μl of drug at 25 mM, in 8 ml of Hepes Buffer. Different time points were done, Oh, 2 h, 4 h, 24 h, and 48 h.
Stability of the compounds was performed in HEPES Buffer 0.5 M (pH 7.5) at 37 O, at a concentration of 50 μM. Compounds SQE94 and 79 were tested at a concentration of 25 μM to avoid parasite precipitation phenomena. Typically, stock solutions of compounds in DMSO (25 mM) were diluted in HEPES Buffer. Dilutions were stored at 37° C., protected from light. Sampling was done at different time points. Samples were analyzed on an UV-spectrophotometer using a wavelength scan between 200 and 700 nm. Superposition of UV-spectra gives the qualitative aspect of the stability of the drug. Based on the Beer-Lambert law, percentage of degradation of the drug over time was calculated, when placed at the maximum absorption wavelength.

Data set [4] in a line: Stability by HPLC in PEG400 and Vitamine E-TPGS/PEG 400 mixtures. The format is physicochemical. The note with it: over 24 hrs at room temperature in several mixtures of excipients. The method, then:
The second stability assay consists in the assessment according to standard HPLC analysis protocols over 24 hrs in PEG400 and Vitamine E-TPGS/PEG 400 mixtures, by focusing on the evolution of the concentration and peak purity of the compound. Compounds were dissolved in appropriate amounts of solvent and let under stirring protected from light for 24 hrs. Aliquots were transferred into eppendorfs and centrifuged at 10 000 g for 10 min. Supernatants were collected and appropriately diluted in DMSO/mobile phase mixtures before HPLC analysis. The Waters HPLC analysis system equipped with an ultraviolet detector and a Waters Symmetry Shield C18 column of 2.1 mm×50 mm ([…]) was used. A mobile phase of water/acetic acid 0.1% (Solvant A): Acetonitrile/acetic acid 0.1% (solvent B) mixture or a water/trifluoroacetic acid 0.1% (Solvant A): Acetonitrile/trifluoroacetic acid 0.1% (solvent B) mixture in the case of compound FZ41 was pumped according to a binary gradient described below, at a flow rate of 0.4 ml/min.

Data set [5] can be described thus: Solubility of compound SQE94 in pH-buffers. The data set is classed as physicochemical. To be noted: compound alone, room temperature, 24 h. The method, then:
Solubility of compound SQE94 was determined in pH-buffers at pH values of 5, 6 and 7. 10 mg of SQE94 are added to 10 ml of each pH-buffer. Each solution is stirred at room temperature, away from light, for 24 h, then centrifugated. The amount of dissolved compound is determined by HPLC analysis.

Data set [6] can be described thus: Chemical stability at pH between 1 and 7. The format is physicochemical. To be noted: over 24 hrs at pH between 1 and 7.
The mark [7] stands for this setting: CEM cells, HIV-1 NL 4.3, 48 hours, p24.
Where [8] appears, read: Human immunodeficiency virus 1, HeLaP4, HeLa P4 cells, HIV-1 NL 4.3, 48 hours.
Setting [9] is: Human immunodeficiency virus 1, HeLaP4, 48 h.

Where two headings read alike, the source gives them in different places.

The term IC50 denotes the point on the concentration scale where inhibition reaches its midpoint. What is called melting point is the temperature of the solid-liquid transition.

In the case of `CC(=O)c1ccc(O)c2nc(/C=C/c3cc(O)c(O)cc3O)ccc12` [SQE74, 1-{2-[2(E)-(2,4,5-thhydroxyphenyl)-vinyl]-8-hydroxy-quinolin-5-yl}-ethanone], the EC50 in [1] (setting [7]) came out at 350 nM. The molecule also returned a half-maximal inhibitory concentration (IC50) at 2 days in “in vitro” of 11700 nM. In addition, the IC50 in data set [2] (setting [8]) stood at 11800 nM; against HBX2 HIV integrase, 225 nM. Moreover, the “% of degradation” value in [3] (2 hrs) is given as 17.2%; in [3] (4 hrs), 26.1%; in data set [3] (24 hrs) it was 24.1%.
With `CC(=O)c1ccc(O)c2nc(/C=C/c3cc(O)c(O)c(O)c3)ccc12` [SQE75, 1-{2-[2(E)-(3,4,5-thhydroxyphenyl)-vinyl]-8-hydroxy-quinolin-5-yl}-ethanone], the EC50 in data set [1] (setting [7]) worked out at 24700 nM. This molecule also yielded a half-inhibitory concentration (IC50) at 2 days in “in vitro” above 100000 nM. Moreover, the values for the IC50 (in [2] (setting [8]); on HBX2 HIV integrase) were 9600 nM and 510 nM, respectively. In addition, the “% of degradation” value was 15.7% in [3] (2 hrs), 17.5% in data set [3] (4 hrs) and 18.7% in data set [3] (24 hrs).
For the molecule `CC(=O)c1ccc(O)c2nc(/C=C/c3cc(O)c(O)c([N+](=O)[O-])c3)ccc12` [SQE79, 1-{2-[2(E)-(3,4-dihydroxy, 5-nitrophenyl)-vinyl]-8-hydroxy-quinolin-5-yl}-ethanone], in data set [1] (setting [7]), the EC50 stood at 400 nM. The molecule also registered an IC50 at 2 days in “in vitro” of 4200 nM. Besides, the 50% inhibitory concentration (IC50) in data set [2] (setting [8]) came to 4600 nM; on HBX2 HIV integrase, 225 nM. The “% of degradation” value in data set [3] (2 hrs) is given as 19.2%; in data set [3] (4 hrs), 26.9%; in data set [3] (24 hrs), 42.9%.
Take `CC(=O)c1ccc(O)c2nc(/C=C/c3cc(O)c(O)c(Cl)c3)ccc12` [SQE86, (E)-1-(2-(3-chloro-4,5-dihydroxystyryl)-8-hydroxyquinolin-5-yl)ethanone]: the melting point was 256 to 258 °C. The EC50 in data set [1] (48 h) stood at 500 nM. Half-maximal inhibition in “in vitro” (IC50 at 2 days) was put at 15000 nM. Besides, the concentration for half-maximal inhibition (IC50) in data set [2] (setting [9]) is 1000 nM. On HBX2 HIV integrase, this molecule showed a concentration for half-maximal inhibition (IC50) of 530 nM. For the same molecule, the “% of degradation” value in [3] (2 hrs) was 12.1%. Besides, the “% of degradation” value in [3] (4 hrs) turned out to be 12.5%. Besides, the “% of degradation” value in [3] (24 hrs) stood at 22.4%.
In turn, `CC(=O)c1ccc(O)c2nc(/C=C/c3ccc(O)c(C(=O)O)c3)ccc12` [SQE89, (E)-5-(2-(5-acetyl-8-hydroxyquinolin-2-yl)vinyl)-2-hydroxybenzoic acid] gave a melting point of 266 to 268 °C. The same molecule registered an IC50 at 2 days in “in vitro” of 12600 nM. Besides, the half-maximal inhibitory concentration (IC50) in data set [2] (setting [9]) was 1000 nM. At HBX2 HIV integrase, 560 nM corresponded to half-maximal inhibition (IC50). The “% of degradation” value in data set [3] (2 hrs) was below 5%. In data set [3] (4 hrs), the “% of degradation” value was below 5%. In [3] (24 hrs), the “% of degradation” value is reported as below 5%.
For the molecule `COc1cc(/C=C/c2ccc3c(C(C)=O)ccc(O)c3n2)cc([N+](=O)[O-])c1O` [SQE94, 1-{2-[2(E)-(3-nitro, 4-hydroxy, 5-methoxyphenyl)-vinyl]-8-hydroxy-quinolin-5-yl}-ethanone], in data set [4], the degradation entry is recorded as “less than 10%”. Moreover, the IC50 at 2 days in “in vitro” amounted to 56000 nM. The “Dissolved compound SQE94” value in data set [5] (pH5 buffer) came to 1.4 µg/mL; in [5] (pH6 buffer), 1.4 µg/mL; in data set [5] (pH7 buffer), 5.5 µg/mL. Also, the chemical profile stability result in data set [6] was “very stable chemical profiles”. The concentration for half-maximal inhibition (IC50) in [2] (setting [8]) stood at 1600 nM; on HBX2 HIV integrase it was 724 nM. The “% of degradation” value in [3] (2 hrs) is listed as below 5%; in [3] (4 hrs), 8.2%; in data set [3] (24 hrs) it was 30.8%.
On to `CC(=O)c1ccc(O)c2nc(/C=C/c3ccc(C(=O)O)cc3[N+](=O)[O-])ccc12` [SQE96, 4-[2(E)-(5-Acetyl-8-hydroxy-quinolin-2-yl)-vinyl]-5-nitro-benzoic acid], for which the 50% inhibitory concentration (IC50) at 2 days in the data set “in vitro” is above 100000 nM. Moreover, the IC50 in data set [2] (setting [8]) amounted to 40000 nM; at HBX2 HIV integrase, 2300 nM. The “% of degradation” value in [3] (2 hrs), in data set [3] (4 hrs) and in data set [3] (24 hrs) was below 5% throughout.
